One experiment deals with T1, HiBit-BRM fusion protein (Homo sapiens, UniProt P51531).
T1 construct: expressed in transfected cells
The experiment is described as follows: HiBiT-BRM cell-based degradation assay (Nano-Glo HiBiT Lytic Detection, 24 h). To be noted: HeLa cell line expressing HiBiT-BRM; for DC50: read-out: BRM HiBit Degradation IC50. In short, it runs like this: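 Luminescence from reconstituted NanoBiT luciferase in lysed HeLa HiBiT-BRM cells served as the measure of remaining BRM after 24 h treatment. Compounds were tested from 30 μM final downward in 3-fold steps. DMSO and 2 μM of a standard BRM/BRG1 degrader defined the scale limits.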

Experiment [1] deals with T2, HiBit-BRG1 fusion protein (Homo sapiens, UniProt P51532).
T2 construct: expressed in transfected cells
T2 sequence (P51532 whole entry, the tested form may be a part): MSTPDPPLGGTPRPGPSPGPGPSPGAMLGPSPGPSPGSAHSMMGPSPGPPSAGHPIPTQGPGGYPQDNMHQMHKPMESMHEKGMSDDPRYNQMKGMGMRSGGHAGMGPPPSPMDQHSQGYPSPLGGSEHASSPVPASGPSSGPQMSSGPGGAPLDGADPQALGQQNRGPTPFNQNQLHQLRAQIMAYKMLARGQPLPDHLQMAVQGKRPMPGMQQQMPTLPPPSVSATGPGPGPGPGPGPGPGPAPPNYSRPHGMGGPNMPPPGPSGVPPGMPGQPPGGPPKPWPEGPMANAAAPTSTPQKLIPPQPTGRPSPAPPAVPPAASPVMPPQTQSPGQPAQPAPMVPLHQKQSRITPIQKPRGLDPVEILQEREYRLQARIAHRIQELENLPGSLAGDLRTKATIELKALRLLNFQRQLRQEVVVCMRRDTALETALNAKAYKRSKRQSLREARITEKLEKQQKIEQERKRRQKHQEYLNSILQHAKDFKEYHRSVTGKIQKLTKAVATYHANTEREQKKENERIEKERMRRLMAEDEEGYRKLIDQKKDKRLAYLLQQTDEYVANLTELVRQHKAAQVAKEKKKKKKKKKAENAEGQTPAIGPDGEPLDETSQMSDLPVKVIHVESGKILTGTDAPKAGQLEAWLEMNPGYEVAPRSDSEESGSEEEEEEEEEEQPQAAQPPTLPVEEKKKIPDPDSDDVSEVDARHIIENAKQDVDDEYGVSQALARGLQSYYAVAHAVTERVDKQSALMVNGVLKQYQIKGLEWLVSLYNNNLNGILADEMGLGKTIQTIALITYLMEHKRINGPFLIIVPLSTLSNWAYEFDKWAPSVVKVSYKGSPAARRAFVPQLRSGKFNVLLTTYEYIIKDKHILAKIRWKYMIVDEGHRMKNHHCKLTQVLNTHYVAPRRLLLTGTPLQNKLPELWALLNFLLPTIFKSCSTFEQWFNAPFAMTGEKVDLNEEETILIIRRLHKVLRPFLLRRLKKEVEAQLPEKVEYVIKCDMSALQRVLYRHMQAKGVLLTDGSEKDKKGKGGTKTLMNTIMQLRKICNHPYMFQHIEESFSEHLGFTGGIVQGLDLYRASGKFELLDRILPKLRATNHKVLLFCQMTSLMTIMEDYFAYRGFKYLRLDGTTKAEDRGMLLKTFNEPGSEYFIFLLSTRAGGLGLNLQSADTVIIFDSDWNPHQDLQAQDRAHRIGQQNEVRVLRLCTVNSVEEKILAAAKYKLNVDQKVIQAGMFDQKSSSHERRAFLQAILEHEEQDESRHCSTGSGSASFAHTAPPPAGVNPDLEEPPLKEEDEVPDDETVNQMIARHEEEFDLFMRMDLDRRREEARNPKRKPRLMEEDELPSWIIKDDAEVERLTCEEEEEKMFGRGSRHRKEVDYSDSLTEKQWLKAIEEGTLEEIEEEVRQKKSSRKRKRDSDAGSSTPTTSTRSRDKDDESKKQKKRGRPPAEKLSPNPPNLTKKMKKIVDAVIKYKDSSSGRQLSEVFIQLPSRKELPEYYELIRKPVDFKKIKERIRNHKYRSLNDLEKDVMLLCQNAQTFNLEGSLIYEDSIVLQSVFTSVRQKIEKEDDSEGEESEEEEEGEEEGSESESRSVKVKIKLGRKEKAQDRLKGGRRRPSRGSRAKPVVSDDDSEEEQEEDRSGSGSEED
The experiment in a line: HiBiT-BRG1 cell-based degradation assay (Nano-Glo HiBiT Lytic Detection, 24 h). Conditions: HeLa cell line expressing HiBit-BRG1 and LgBit; for Dmax: read-out: BRG1 HiBit Degradation Maximum (%); for DC50: read-out: BRMG1 HiBit Degradation IC50. In short, it runs like this: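 Stable HeLa line co-expressing HiBit-BRG1 and LgBit, 5000 cells/well, treated 24 h in a tissue culture incubator. Lysed with Nano-Glo HiBiT lytic reagent, luminescence read. % degradation normalized to DMSO (high control) and 2 μM reference BRM/BRG1 degrader (low control).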
In general terms: With HiBiT, luminescence reflects the tagged protein that the partner subunit can reach.

Results on 10 compounds are retold here after patent publication US20240024488A1, “COMPOUNDS AND USES THEREOF” (Foghorn Therapeutics Inc., priority 2020, published 2024).

T1 sequence (P51531 whole entry, the tested form may be a part): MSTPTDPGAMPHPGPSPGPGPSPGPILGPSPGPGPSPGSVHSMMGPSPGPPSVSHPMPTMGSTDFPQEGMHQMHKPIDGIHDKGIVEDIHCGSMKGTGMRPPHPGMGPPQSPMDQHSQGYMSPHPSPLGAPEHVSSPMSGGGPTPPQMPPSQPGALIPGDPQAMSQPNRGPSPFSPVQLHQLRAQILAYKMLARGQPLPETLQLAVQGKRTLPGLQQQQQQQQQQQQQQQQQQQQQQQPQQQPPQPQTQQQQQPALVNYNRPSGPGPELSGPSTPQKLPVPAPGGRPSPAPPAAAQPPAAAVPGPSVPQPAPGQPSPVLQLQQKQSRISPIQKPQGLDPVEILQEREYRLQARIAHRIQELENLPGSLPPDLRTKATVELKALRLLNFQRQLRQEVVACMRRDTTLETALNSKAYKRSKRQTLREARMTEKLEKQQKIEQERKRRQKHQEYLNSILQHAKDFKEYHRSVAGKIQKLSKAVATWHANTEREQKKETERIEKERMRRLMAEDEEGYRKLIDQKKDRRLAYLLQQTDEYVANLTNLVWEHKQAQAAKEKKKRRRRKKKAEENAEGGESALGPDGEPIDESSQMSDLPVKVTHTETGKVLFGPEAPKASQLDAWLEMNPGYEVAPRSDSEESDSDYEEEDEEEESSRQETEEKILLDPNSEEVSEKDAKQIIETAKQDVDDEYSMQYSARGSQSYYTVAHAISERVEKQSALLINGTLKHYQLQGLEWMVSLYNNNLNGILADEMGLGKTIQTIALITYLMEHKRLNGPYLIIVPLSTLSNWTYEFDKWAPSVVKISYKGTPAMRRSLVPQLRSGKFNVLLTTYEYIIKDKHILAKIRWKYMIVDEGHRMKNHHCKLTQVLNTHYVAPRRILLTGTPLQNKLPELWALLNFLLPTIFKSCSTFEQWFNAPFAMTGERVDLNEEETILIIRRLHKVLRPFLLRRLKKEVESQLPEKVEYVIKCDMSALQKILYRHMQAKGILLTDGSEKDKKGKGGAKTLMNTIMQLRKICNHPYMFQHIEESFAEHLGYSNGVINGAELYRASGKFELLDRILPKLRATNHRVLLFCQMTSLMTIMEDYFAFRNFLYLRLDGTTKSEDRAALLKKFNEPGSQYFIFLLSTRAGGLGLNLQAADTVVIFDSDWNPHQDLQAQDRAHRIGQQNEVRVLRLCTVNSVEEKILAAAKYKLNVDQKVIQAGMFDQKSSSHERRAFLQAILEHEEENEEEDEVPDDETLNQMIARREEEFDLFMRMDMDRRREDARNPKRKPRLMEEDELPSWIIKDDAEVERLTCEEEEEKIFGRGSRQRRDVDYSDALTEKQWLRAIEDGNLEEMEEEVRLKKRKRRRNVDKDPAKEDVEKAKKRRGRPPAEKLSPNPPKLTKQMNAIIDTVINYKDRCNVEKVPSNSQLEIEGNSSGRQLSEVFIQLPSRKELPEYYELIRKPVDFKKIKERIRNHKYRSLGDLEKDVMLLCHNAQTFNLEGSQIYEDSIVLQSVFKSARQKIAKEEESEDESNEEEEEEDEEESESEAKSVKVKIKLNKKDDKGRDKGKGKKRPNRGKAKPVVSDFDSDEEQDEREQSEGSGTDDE

With `Cc1ncsc1-c1ccc([C@H](C)NC(=O)[C@@H]2C[C@@H](O)CN2C(=O)C(c2cc(N3CCC(C(=O)N4CC(c5c[nH]c6nnc(-c7ccccc7O)cc56)C4)CC3)no2)C(C)C)cc1` (mixture of isomers) [Compound 236, (2S,4R)-4-hydroxy-1-((R)-2-(3-(4-(3-(3-(2-hydroxyphenyl)-7H-pyrrolo[2,3-c]pyridazin-5-yl)azetidine-1-carbonyl)piperidin-1-yl)isoxazol-5-yl)-3-methylbutanoyl)-N-((S)-1-(4-(4-methylthiazol-5-yl)phenyl)ethyl)pyrrolidine-2-carboxamide], at HiBit-BRM fusion protein, the “BRM HiBit Degradation Maximum (%)” value is “C (“C” indicates maximum degradation < 50%)”. Besides, the Dmax in experiment [1] is less than 50%.

On to `Cc1ncsc1-c1ccc([C@H](C)NC(=O)[C@@H]2C[C@@H](O)CN2C(=O)[C@@H](c2cc(OCCCN3CC4(Cc5cc(-c6ccccc6O)nnc5N4)C3)no2)C(C)C)cc1` (racemic) [Compound 84, (2S,4R)-4-hydroxy-1-((R)-2-(3-(3-(3′-(2-hydroxyphenyl)-5′,7′-dihydrospiro[azetidine-3,6′-pyrrolo[2,3-c]pyridazin]-1-yl)propoxy)isoxazol-5-yl)-3-methylbutanoyl)-N-((S)-1-(4-(4-methylthiazol-5-yl)phenyl)ethyl)pyrrolidine-2-carboxamide], for which, at HiBit-BRM fusion protein, the “BRM HiBit Degradation Maximum (%)” value is reported as “C (“C” indicates maximum degradation < 50%)”. The Dmax in experiment [1] is less than 50%.

With `Cc1ncsc1-c1ccc(CNC(=O)[C@@H]2C[C@@H](O)CN2C(=O)[C@@H](NC(=O)C2(F)CC2)C(C)(C)C)c(OCCN2CC(c3cc4cc(-c5ccccc5O)nnc4[nH]3)C2)c1` (racemic) [Compound 63, (2S,4R)-1-((S)-2-(1-fluorocyclopropane-1-carboxamido)-3,3-dimethylbutanoyl)-4-hydroxy-N-(2-(2-(3-(3-(2-hydroxyphenyl)-7H-pyrrolo[2,3-c]pyridazin-6-yl)azetidin-1-yl)ethoxy)-4-(4-methylthiazol-5-yl)benzyl)pyrrolidine-2-carboxamide], the “BRM HiBit Degradation Maximum (%)” value on HiBit-BRM fusion protein was “C (“C” indicates maximum degradation < 50%)”. For the same compound, the Dmax in experiment [1] was less than 50%.

In the case of `Cc1ncsc1-c1ccc([C@H](C)NC(=O)[C@@H]2C[C@@H](O)CN2C(=O)[C@@H](c2cc(OCCN3CC(c4cc5cc(-c6ccccc6O)nnc5n4C)C3)no2)C(C)C)cc1` (racemic) [Compound 140, (2S,4R)-4-hydroxy-1-((R)-2-(3-(2-(3-(3-(2-hydroxyphenyl)-7-methyl-7H-pyrrolo[2,3-c]pyridazin-6-yl)azetidin-1-yl)ethoxy)isoxazol-5-yl)-3-methylbutanoyl)-N-((S)-1-(4-(4-methylthiazol-5-yl)phenyl)ethyl)pyrrolidine-2-carboxamide], on HiBit-BRM fusion protein, the “BRM HiBit Degradation Maximum (%)” value is listed as “C (“C” indicates maximum degradation < 50%)”. In experiment [1], the Dmax is less than 50%.

Regarding `Cc1ncsc1-c1ccc([C@H](C)NC(=O)[C@@H]2C[C@@H](O)CN2C(=O)[C@@H](c2cc(CCN3CC(c4cc5cc(-c6ccccc6O)nnc5[nH]4)C3)no2)C(C)C)cc1` (single isomer, unassigned) [Compound 152], at HiBit-BRM fusion protein, the “BRM HiBit Degradation Maximum (%)” value was “B (“B” indicates maximum degradation ≥ 50%)” and the DC50 was more than 100 nM. Moreover, in experiment [1], the Dmax is less than 50%.

For `Cc1ncsc1-c1ccc([C@H](C)NC(=O)[C@@H]2C[C@@H](O)CN2C(=O)[C@@H](c2cc(OCCN3CC4(C3)CN(c3cc5cc(-c6ccccc6O)nnc5[nH]3)C4)no2)C(C)C)cc1` (racemic) [Compound 226, (2S,4R)-4-hydroxy-1-[(2R)-2-[3-(2-{6-[3-(2-hydroxyphenyl)-7H-pyrrolo[2,3-c]pyridazin-6-yl]-2,6-diazaspiro[3.3]heptan-2-yl}ethoxy)-1,2-oxazol-5-yl]-3-methylbutanoyl]-N-[(1S)-1-[4-(4-methyl-1,3-thiazol-5-yl)phenyl]ethyl]pyrrolidine-2-carboxamide], at HiBit-BRM fusion protein, the “BRM HiBit Degradation Maximum (%)” value is on record as “A (“A” indicates maximum degradation ≥ 75%)” and the DC50 is more than 100 nM. Further, in experiment [1], the Dmax is more than 75% and the DC50 was more than 100 nM.

As to `Cc1ncsc1-c1ccc([C@H](C)NC(=O)[C@@H]2C[C@@H](O)CN2C(=O)[C@@H](c2cc(OCCN(C)C34CC(c5cc6cc(-c7ccccc7O)nnc6[nH]5)(C3)C4)no2)C(C)C)cc1` (racemic) [Compound 302, (2S,4R)-4-hydroxy-1-((R)-2-(3-(2-((3-(3-(2-hydroxyphenyl)-7H-pyrrolo[2,3-c]pyridazin-6-yl)bicyclo[1.1.1]pentan-1-yl)(methyl)amino)ethoxy)isoxazol-5-yl)-3-methylbutanoyl)-N-((S)-1-(4-(4-methylthiazol-5-yl)phenyl)ethyl)pyrrolidine-2-carboxamide], at HiBit-BRM fusion protein, the “BRM HiBit Degradation Maximum (%)” value is listed as “A (“A” indicates maximum degradation ≥ 75%)” and the DC50 is more than 10 nM. Moreover, in experiment [1], the Dmax was more than 75% and the DC50 is more than 10 nM.

Turning to `CC(C)[C@H](C(=O)N1C[C@H](O)C[C@H]1C(=O)N[C@@H](C)c1ccc(-c2ccccc2F)cc1)c1cc(OCCN2CC(c3cc4cc(-c5ccccc5O)nnc4[nH]3)C2)no1` (single isomer, unassigned) [Compound 117], the “BRM HiBit Degradation Maximum (%)” value on HiBit-BRM fusion protein is “C (“C” indicates maximum degradation < 50%)”. Further, the Dmax in experiment [1] was less than 50%.

For the compound `Cc1ncsc1-c1ccc([C@H](C)NC(=O)[C@@H]2C[C@@H](O)CN2C(=O)[C@@H](c2cc(OCCNCCC(=O)N3CC(c4cc5cc(-c6ccccc6O)nnc5[nH]4)C3)no2)C(C)C)cc1` (racemic) [Compound 65, (2S,4R)-4-hydroxy-1-((R)-2-(3-(2-((3-(3-(3-(2-hydroxyphenyl)-7H-pyrrolo[2,3-c]pyridazin-6-yl)azetidin-1-yl)-3-oxopropyl)amino)ethoxy)isoxazol-5-yl)-3-methylbutanoyl)-N-((S)-1-(4-(4-methylthiazol-5-yl)phenyl)ethyl)pyrrolidine-2-carboxamide], at HiBit-BRM fusion protein, the “BRM HiBit Degradation Maximum (%)” value was “B (“B” indicates maximum degradation ≥ 50%)” and the DC50 is more than 1000 nM. Besides, the Dmax in experiment [1] is less than 50%.

As for `Cc1ncsc1-c1ccc([C@H](C)NC(=O)[C@@H]2C[C@@H](O)CN2C(=O)[C@@H](c2cc(OCCN3CCC(c4c[nH]c5nnc(-c6ccccc6O)cc45)CC3)no2)C(C)C)cc1` (racemic) [Compound 282, (2S,4R)-4-hydroxy-1-((R)-2-(3-(2-(4-(3-(2-hydroxyphenyl)-7H-pyrrolo[2,3-c]pyridazin-5-yl)piperidin-1-yl)ethoxy)isoxazol-5-yl)-3-methylbutanoyl)-N-((S)-1-(4-(4-methylthiazol-5-yl)phenyl)ethyl)pyrrolidine-2-carboxamide], at HiBit-BRM fusion protein, the “BRM HiBit Degradation Maximum (%)” value is listed as “A (“A” indicates maximum degradation ≥ 75%)” and the DC50 was more than 10 nM. Besides, the Dmax in experiment [1] is less than 50%.
